PMC5642273 (Biochemistry, 2017)
Read-outs that look alike come from different tables or passages of the source.

Experiments:
[1] = target: T1, (+)-limonene synthase [(+)-LS] (Citrus sinensis, UniProt A0A1C9J6A7); assay: X-ray crystal structure; type: biochemical
[2] = target: T1, (+)-limonene synthase [(+)-LS]; assay: X-ray crystal structure; type: biochemical; remark: listed apart in the source

T1 sequence (A0A1C9J6A7 53-607): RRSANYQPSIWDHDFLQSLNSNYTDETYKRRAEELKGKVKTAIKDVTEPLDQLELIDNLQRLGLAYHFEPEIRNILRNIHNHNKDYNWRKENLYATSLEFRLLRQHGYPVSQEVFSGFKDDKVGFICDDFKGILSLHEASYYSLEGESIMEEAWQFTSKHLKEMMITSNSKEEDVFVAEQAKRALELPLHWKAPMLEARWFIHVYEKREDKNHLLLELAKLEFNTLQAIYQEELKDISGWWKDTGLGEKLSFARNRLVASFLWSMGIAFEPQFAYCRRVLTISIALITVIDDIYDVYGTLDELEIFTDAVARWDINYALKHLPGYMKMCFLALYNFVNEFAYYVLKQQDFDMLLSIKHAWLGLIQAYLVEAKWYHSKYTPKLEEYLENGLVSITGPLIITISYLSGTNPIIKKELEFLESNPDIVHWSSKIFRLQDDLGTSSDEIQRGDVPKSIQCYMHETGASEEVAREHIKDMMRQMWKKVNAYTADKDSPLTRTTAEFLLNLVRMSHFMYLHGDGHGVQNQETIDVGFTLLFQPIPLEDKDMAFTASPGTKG

| Ki [1] [µM] | Ki [2] [µM] | SMILES |
| --- | --- | --- |
| 2.4 ± 0.5 |  | CC(C)=CCC/C(C)=C(\F)COP(=O)(O)OP(=O)(O)O [FGPP, 2-fluorogeranyl diphosphate] |
|  | 39.5 ± 5.2 | CC(C)=CCC/C(C)=C(/F)COP(=O)(O)OP(=O)(O)O [FNPP, 2-fluoroneryl diphosphate] |
